Measured values: publication PMC8122671, “New Succinimides with Potent Anticancer Activity: Synthesis, Activation of Stress Signaling Pathways and Characterization of Apoptosis in Leukemia and Cervical Cancer Cells” (International Journal of Molecular Sciences, 2021)
“Also recorded” adds a separate entry of the source. Where two headings read alike, the source gives them in different places.

How the values were obtained:
[1] = test system: plasmid DNA (pcDNA3.1HisC); test: DNA-cleavage protection assay (BamHI digestion of plasmid DNA); type: biochemical; conditions: 100 µM, overnight 37 °C, then BamHI 3 h
Description: A DNA-cleavage protection assay has been successfully used for the identification of compounds that bind DNA either covalently or noncovalently. Such binding may result in DNA being less susceptible to enzymatic cleavage. […] It was also reported that naphtalenoimides or indolomaleimides intercalate into DNA [13, 14]. […] In CD studies, a synthetic 23-nt duplex DNA or bovine thymus DNA was incubated with compound Ic or daunorubicin (reference compound). […] Using a DNA-cleavage protection assay, we investigated whether selected compounds 2c, 2d, and 2f and 3c, 3d, and 3f interact with a plasmid DNA, resulting in increased resistance to endonucleolytic cleavage. Plasmid DNA (pcDNA3.1HisC) containing a single BamHI cleavage site was incubated with test compounds and subsequently digested with BamH1 restriction endonuclease. Daunorubicin (a strong DNA-intercalating agent) was used as a reference compound. Non-digested plasmid DNA existed predominantly in the circular form; however, the superhelical and linear forms were also detected (Figure 5, lane 1). […] This observation can be explained by the higher lipophilicity of 3c, 3d, and 3f compared to 2c, 2d, and 2f, which may facilitate their more efficient binding to DNA.
First, 0.5 μg of plasmid DNA (pcDNAHisC, total length 5.5 kbp) containing a unique BamHI restriction site was dissolved in a 1× BamHI reaction buffer and incubated overnight at 37 °C with the test compounds or daunorubicin. Daunorubicin, a strong intercalating agent, was used as a positive control. The concentration of the test compounds and daunorubicin samples was 100 µM. In the next step, the reaction mixtures were digested with BamHI restriction endonuclease (2 U/μL) for 3 h at 37 °C. The total reaction volume was 10 μL. Products of the reaction were subjected to the 1% agarose gel electrophoresis in TBE buffer. The gel was stained with ethidium bromide, and DNA fragments were visualized under a UV lamp (GBox, Syngene).

[2] = test system: caspase 3/7 in K562 cells; test: Caspase-3/7 activity assay (Apo-ONE) in K562 cells; type: cell-based, human; conditions: K562, 18 h, test compound at 5xIC50, staurosporine 1 μM; vs 1% DMSO
Description: After incubation for 18 h, K562 cells were lysed and the activity of caspase 3/7 was measured using a profluorescent peptide substrate.
First, 20 × 10^3 K562 cells were seeded on each well of a 96-well plate in RPMI 1640 medium supplemented with 10% fetal calf serum and antibiotics. Cells were grown for 24 h at 37 °C and 5% CO2. Test dicarboximides were dissolved in DMSO and added to cell culture to the final concentration of 5 × IC50. […] Cells were exposed to test compounds for 18 h at 37 °C and 5% CO2. Subsequently, the activity of caspase 3 and 7 was measured by Apo-ONE® Homogeneous Caspase-3/7 Assay (Promega, Madison, WI, USA) according to the manufacturer’s instructions. Briefly, the cells were lysed and incubated for 1.5 h with a profluorescent substrate for caspase 3 and 7. Next, the fluorescence was read at an excitation wavelength of 485 nm and emission of 520 nm with a FLUOStar Omega microplate reader (BMG-Labtech, Offenburg, Germany).

[3] = test system: HUVEC (normal endothelial) cells; test: MTT cytotoxicity assay, HUVEC; type: cell-based; conditions: Homo sapiens, 48 h incubation, average (SD) of three experiments, read-out: IC50 HUVEC
[4] = test system: K562 (myelogenous leukemia cell line); test: MTT cytotoxicity assay, K562; type: cell-based, human; conditions: 48 h incubation, average (SD) of three experiments, read-out: IC50 K562
[5] = test system: MOLT-4 (Human T-Lymphoid Cell Line); test: MTT cytotoxicity assay, MOLT-4; type: cell-based; conditions: MOLT-4, 48 h incubation, average (SD) of three experiments, read-out: IC50 MOLT-4

Structure (SMILES) | protection of plasmid DNA from BamHI digestion (circular DNA left) [1] | activity of caspase 3/7 [2] | IC50 [3] | IC50 [4] | IC50 ([4]; Homo sapiens, K562, 48 h) | IC50 [5]
CCC12C(=O)C(CC)(C(c3ccccc3)=C1c1ccccc1)C1C(=O)N(CC(O)CNC(C)(C)C)C(=O)C12 (stereo not shown) [2c, 4-[3-(tert-butylamino)-2-hydroxypropyl]-1,7-diethyl-8,9-diphenyl-4-azatricyclo [5.2.1.0^2,6]dec-8-ene-3,5,10-trione] | the circular form was also detected | over eight-fold increase in caspase activity; also recorded: activated caspase 3 and 7 | 3.3 µM | 4 µM | < 6 µM | 2.5 µM
CCN(CC)CC(O)CN1C(=O)C2C(C1=O)C1(CC)C(=O)C2(CC)C(c2ccccc2)=C1c1ccccc1 (stereo not shown) [2d, 4-[3-(diethylamino)-2-hydroxypropyl]-1,7-diethyl-8,9-diphenyl-4-azatricyclo [5.2.1.0^2,6]dec-8-ene-3,5,10-trione] | the circular form was also detected | over eight-fold increase in caspase activity; also recorded: activated caspase 3 and 7 | 3.6 µM | 5.8 µM | < 6 µM | 14 µM
CC(C)(C)NCC(O)CN1C(=O)C2C(C1=O)C1(c3ccccc3)CC2(c2ccccc2)C(c2ccccc2)=C1c1ccccc1 (stereo not shown) [3c, 4-[3-(tert-butylamino)-2-hydroxypropyl]-1,7,8,9-tetraphenyl-4-azatricyclo[5.2.1.0^2,6]dec-8-ene-3,5-dione] | interaction seems to be stronger | activated caspase 3/7 to a lesser extent; also recorded: activated caspase 3 and 7 | 0.4 µM |  |  | 2.6 µM
CCN(CC)CC(O)CN1C(=O)C2C(C1=O)C1(c3ccccc3)CC2(c2ccccc2)C(c2ccccc2)=C1c1ccccc1 (stereo not shown) [3d, 4-[3-(diethylamino)-2-hydroxypropyl]-1,7,8,9-tetraphenyl-4-azatricyclo[5.2.1.0^2,6]dec-8-ene-3,5-dione] | interaction seems to be stronger | activated caspase 3/7 to a lesser extent; also recorded: activated caspase 3 and 7 | 0.3 µM | 3.2 µM | < 6 µM | 2.2 µM
